{"source": "patent US20260257261A1", "about": "“BIOMIMETIC MULTIFUNCTIONAL LIGNOCELLULOSIC DEGRADABLE SORBENT FOR ENVIRONMENTAL REMEDIATION” (THE TEXAS A&M UNIVERSITY SYSTEM, priority 2022, published 2026)", "origin": "cited, not measured here", "conditions": "previous studies by Mahapatra et al. and others"}
{"smiles": "O=C(O)C(F)(F)C(F)(F)C(F)(F)F", "note": "[PFBA]", "values": [{"measurement": "toxicity relative to PFOA (C8)", "result": "much less toxic"}]}
{"smiles": "O=C(O)C(F)(F)C(F)(F)C(F)(F)C(F)(F)C(F)(F)F", "note": "[PFHA, perfluorohexanoic acid]", "values": [{"measurement": "toxicity relative to PFOA (C8)", "result": "much less toxic"}]}
{"smiles": "O=C(O)C(F)(F)C(F)(F)C(F)(F)C(F)(F)F", "note": "[PUPA]", "values": [{"measurement": "toxicity relative to PFOA (C8)", "result": "much less toxic"}]}
